Measured values: the NIST ThermoML archive (doi:10.1021/je700193w)

What was measured:
[1] = xn = mol fraction of the nth substance listed; conditions: 101 kPa, Liquid
[2] = excess molar enthalpy (molar enthalpy of mixing); xn = mol fraction of the nth substance listed; conditions: 101 kPa, Liquid
[3] = 101.33 kPa, Liquid

C=C1CCC2CC1C2(C)C (stereo not drawn) [β-pinene] + CC(C)(C)O
Conditions	excess molar enthalpy [kcal/mol]	mass density [kg/m3]	speed of sound [m/s]
[1], 303.15 K, x1 = 0.0534	–	782.04	1110
[1], 303.15 K, x1 = 0.1048	–	787.79	1118.6
[1], 303.15 K, x1 = 0.2017	–	798.21	1135.6
[1], 303.15 K, x1 = 0.2814	–	806.31	1150.6
[1], 303.15 K, x1 = 0.4041	–	817.92	1173.7
[1], 303.15 K, x1 = 0.5042	–	826.75	1192.6
[1], 303.15 K, x1 = 0.6025	–	834.76	1210.5
[1], 303.15 K, x1 = 0.7042	–	842.46	1228.3
[1], 303.15 K, x1 = 0.8048	–	849.62	1244.8
[1], 303.15 K, x1 = 0.9007	–	856.11	1260.2
[1], 303.15 K, x1 = 0.9495	–	859.38	1268.7
[1], 313.15 K, x1 = 0.0561	–	771.94	1066.4
[1], 313.15 K, x1 = 0.108	–	777.84	1076
[1], 313.15 K, x1 = 0.2041	–	788.5	1094.3
[1], 313.15 K, x1 = 0.2996	–	798.32	1112.7
[1], 313.15 K, x1 = 0.4028	–	808.25	1132.3
[1], 313.15 K, x1 = 0.5039	–	817.37	1151
[1], 313.15 K, x1 = 0.5964	–	825.06	1167.1
[1], 313.15 K, x1 = 0.6957	–	832.77	1183.8
[1], 313.15 K, x1 = 0.7979	–	840.16	1201.1
[1], 313.15 K, x1 = 0.893	–	846.86	1216.7
[1], 313.15 K, x1 = 0.9475	–	850.67	1226.2
[1], 323.15 K, x1 = 0.0554	–	761.34	1027.2
[1], 323.15 K, x1 = 0.1025	–	766.94	1036.7
[1], 323.15 K, x1 = 0.2016	–	–	1056.6
[1], 323.15 K, x1 = 0.2032	–	778.49	–
[1], 323.15 K, x1 = 0.3022	–	788.82	1076.4
[1], 323.15 K, x1 = 0.3988	–	798.4	1095.2
[1], 323.15 K, x1 = 0.5053	–	808.25	1115.2
[1], 323.15 K, x1 = 0.5996	–	816.33	1132.3
[1], 323.15 K, x1 = 0.7001	–	824.27	1149.5
[1], 323.15 K, x1 = 0.7941	–	831.23	–
[1], 323.15 K, x1 = 0.799	–	–	1165.8
[1], 323.15 K, x1 = 0.8861	–	–	1180.1
[1], 323.15 K, x1 = 0.8905	–	838.16	–
[1], 323.15 K, x1 = 0.9367	–	–	1188.6
[1], 323.15 K, x1 = 0.9453	–	842.1	–
[2], 303.15 K, x1 = 0.0529	0.0559	–	–
[2], 303.15 K, x1 = 0.109	0.102	–	–
[2], 303.15 K, x1 = 0.2159	0.162	–	–
[2], 303.15 K, x1 = 0.3175	0.192	–	–
[2], 303.15 K, x1 = 0.4299	0.198	–	–
[2], 303.15 K, x1 = 0.5331	0.201	–	–
[2], 303.15 K, x1 = 0.6229	0.194	–	–
[2], 303.15 K, x1 = 0.7198	0.175	–	–
[2], 303.15 K, x1 = 0.8249	0.15	–	–
[2], 303.15 K, x1 = 0.9096	0.114	–	–
[2], 303.15 K, x1 = 0.9686	0.0566	–	–
[2], 313.15 K, x1 = 0.0529	0.0538	–	–
[2], 313.15 K, x1 = 0.109	0.104	–	–
[2], 313.15 K, x1 = 0.2159	0.179	–	–
[2], 313.15 K, x1 = 0.3175	0.217	–	–
[2], 313.15 K, x1 = 0.4299	0.229	–	–
[2], 313.15 K, x1 = 0.5331	0.238	–	–
[2], 313.15 K, x1 = 0.6229	0.235	–	–
[2], 313.15 K, x1 = 0.7198	0.22	–	–
[2], 313.15 K, x1 = 0.8249	0.184	–	–
[2], 313.15 K, x1 = 0.9096	0.139	–	–
[2], 313.15 K, x1 = 0.9686	0.0621	–	–
[2], 323.15 K, x1 = 0.0529	0.102	–	–
[2], 323.15 K, x1 = 0.109	0.141	–	–
[2], 323.15 K, x1 = 0.2159	0.201	–	–
[2], 323.15 K, x1 = 0.3175	0.236	–	–
[2], 323.15 K, x1 = 0.4299	0.251	–	–
[2], 323.15 K, x1 = 0.5331	0.263	–	–
[2], 323.15 K, x1 = 0.6229	0.262	–	–
[2], 323.15 K, x1 = 0.7198	0.248	–	–
[2], 323.15 K, x1 = 0.8249	0.199	–	–
[2], 323.15 K, x1 = 0.9096	0.147	–	–
[2], 323.15 K, x1 = 0.9686	0.0528	–	–

CC(C)(C)O [2-methylpropan-2-ol]
[3]
Conditions	mass density [kg/m3]	speed of sound [m/s]
303.15 K	775.75	1101.9
313.15 K	765.05	1056.4
323.15 K	754.12	1015.9

CC(C)CO [2-methyl-1-propanol]
[3]
Conditions	mass density [kg/m3]	speed of sound [m/s]
283.15 K	809.36	1238.7
298.15 K	798.03	1188
303.15 K	794.17	1174.3
313.15 K	786.1	1138
323.15 K	777.85	1108.2

C=C1CCC2CC1C2(C)C (stereo not drawn) [β-pinene]
[3]
Conditions	mass density [kg/m3]	speed of sound [m/s]
283.15 K	879.07	1354.7
298.15 K	867.11	1295.1
303.15 K	863.17	1278.6
313.15 K	854.87	1236.3
323.15 K	846.75	1200.7
